Test results from ChEMBL document CHEMBL5212743, “Selectivity Literature for EUbOPEN Chemogenomics Library wave 3” (2023).

Legend:
[1] = target: Epidermal growth factor receptor (Homo sapiens, UniProt P00533); assay: Selectivity interaction (KinomeScan (DiscoverX)) EUB0000750a EGFR; conditions: at 1 µM
[2] = target: Synaptic vesicular amine transporter (Homo sapiens, UniProt Q05940); assay: Selectivity interaction (Enzyme and Receptor panel (MSD Pharma/Taiwan)) EUB0000750a SLC18A2
[3] = target: RAC-alpha serine/threonine-protein kinase (Homo sapiens, UniProt P31749); assay: Selectivity interaction (KinomeScan (DiscoverX)) EUB0000750a AKT1; conditions: at 1 µM
RAC-alpha serine/threonine-protein kinase, sequence (P31749 whole entry, canonical isoform): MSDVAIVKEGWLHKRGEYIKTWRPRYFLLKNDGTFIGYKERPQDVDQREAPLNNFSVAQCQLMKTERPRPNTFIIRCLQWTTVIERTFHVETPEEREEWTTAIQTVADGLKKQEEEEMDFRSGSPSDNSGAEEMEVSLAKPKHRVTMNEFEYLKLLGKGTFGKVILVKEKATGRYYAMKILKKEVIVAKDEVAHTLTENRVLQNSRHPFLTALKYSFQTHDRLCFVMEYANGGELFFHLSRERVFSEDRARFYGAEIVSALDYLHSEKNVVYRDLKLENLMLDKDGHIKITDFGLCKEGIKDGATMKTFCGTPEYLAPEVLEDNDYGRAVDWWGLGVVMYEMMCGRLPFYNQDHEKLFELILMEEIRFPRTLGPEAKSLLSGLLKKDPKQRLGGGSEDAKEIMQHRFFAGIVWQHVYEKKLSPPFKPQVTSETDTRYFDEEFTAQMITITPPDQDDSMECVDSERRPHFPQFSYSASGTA

[4] = target: Phosphatidylinositol 4,5-bisphosphate 3-kinase catalytic subunit alpha isoform (Homo sapiens, UniProt P42336); assay: Selectivity interaction (KinomeScan (DiscoverX)) EUB0000750a PIK3CA; conditions: at 1 µM
[5] = target: Citron Rho-interacting kinase (Homo sapiens) (UniProt O14578); assay: Selectivity interaction (KinomeScan (DiscoverX)) EUB0000750a CIT; conditions: at 1 µM
Citron Rho-interacting kinase (Homo sapiens), sequence (O14578 whole entry): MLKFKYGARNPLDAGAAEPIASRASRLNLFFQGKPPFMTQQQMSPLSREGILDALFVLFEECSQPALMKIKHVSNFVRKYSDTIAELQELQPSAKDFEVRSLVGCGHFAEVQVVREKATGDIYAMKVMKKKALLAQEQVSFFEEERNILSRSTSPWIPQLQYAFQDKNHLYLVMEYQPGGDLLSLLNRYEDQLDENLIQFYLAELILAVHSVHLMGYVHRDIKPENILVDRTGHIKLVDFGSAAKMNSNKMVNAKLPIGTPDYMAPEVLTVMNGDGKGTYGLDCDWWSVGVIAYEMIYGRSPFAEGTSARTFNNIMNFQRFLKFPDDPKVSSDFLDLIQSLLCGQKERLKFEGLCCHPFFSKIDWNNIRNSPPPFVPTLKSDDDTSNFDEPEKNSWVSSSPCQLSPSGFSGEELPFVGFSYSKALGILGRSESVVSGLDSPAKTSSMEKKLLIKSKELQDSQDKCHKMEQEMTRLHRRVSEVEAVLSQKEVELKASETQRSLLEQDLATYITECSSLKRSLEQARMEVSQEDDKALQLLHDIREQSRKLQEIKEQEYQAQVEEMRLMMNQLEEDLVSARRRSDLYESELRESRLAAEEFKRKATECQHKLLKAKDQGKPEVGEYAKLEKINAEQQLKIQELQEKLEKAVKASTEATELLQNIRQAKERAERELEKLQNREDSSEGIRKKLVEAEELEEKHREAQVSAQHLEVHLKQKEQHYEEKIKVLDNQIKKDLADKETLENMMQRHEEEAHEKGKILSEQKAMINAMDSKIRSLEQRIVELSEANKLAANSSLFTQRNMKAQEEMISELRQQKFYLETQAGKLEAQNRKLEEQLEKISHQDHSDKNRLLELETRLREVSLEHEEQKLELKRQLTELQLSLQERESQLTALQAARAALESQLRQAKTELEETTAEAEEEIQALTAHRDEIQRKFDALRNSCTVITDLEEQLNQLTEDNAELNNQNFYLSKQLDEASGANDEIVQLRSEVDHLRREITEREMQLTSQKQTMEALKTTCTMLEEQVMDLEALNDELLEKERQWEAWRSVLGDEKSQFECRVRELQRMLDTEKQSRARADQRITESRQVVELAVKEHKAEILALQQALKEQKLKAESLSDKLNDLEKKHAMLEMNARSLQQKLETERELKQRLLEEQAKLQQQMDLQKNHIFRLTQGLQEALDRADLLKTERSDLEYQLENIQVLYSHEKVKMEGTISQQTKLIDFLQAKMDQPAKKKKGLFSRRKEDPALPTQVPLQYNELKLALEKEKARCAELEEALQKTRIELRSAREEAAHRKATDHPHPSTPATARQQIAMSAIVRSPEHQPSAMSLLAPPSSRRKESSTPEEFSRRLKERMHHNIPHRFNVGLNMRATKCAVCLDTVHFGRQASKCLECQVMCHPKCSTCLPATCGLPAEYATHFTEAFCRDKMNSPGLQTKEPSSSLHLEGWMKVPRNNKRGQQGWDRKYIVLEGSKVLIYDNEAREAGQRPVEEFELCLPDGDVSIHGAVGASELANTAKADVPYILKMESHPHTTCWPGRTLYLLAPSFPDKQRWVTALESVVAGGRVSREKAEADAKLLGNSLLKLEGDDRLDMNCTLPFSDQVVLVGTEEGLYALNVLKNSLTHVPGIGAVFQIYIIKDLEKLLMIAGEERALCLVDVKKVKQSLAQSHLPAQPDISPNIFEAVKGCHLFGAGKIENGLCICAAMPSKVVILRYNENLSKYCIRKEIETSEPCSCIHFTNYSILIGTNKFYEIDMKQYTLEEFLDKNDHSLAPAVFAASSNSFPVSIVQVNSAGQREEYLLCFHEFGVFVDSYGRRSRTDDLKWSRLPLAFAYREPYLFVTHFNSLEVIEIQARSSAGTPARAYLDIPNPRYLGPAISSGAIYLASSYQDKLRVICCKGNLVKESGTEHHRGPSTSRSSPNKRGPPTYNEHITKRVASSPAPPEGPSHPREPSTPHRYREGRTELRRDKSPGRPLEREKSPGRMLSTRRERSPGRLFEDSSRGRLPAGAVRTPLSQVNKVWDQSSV

[6] = target: T1, Serine/threonine-protein kinase LATS2 (Homo sapiens) (UniProt Q9NRM7); assay: Selectivity interaction (KinomeScan (DiscoverX)) EUB0000750a LATS2; conditions: at 1 µM
T1 sequence (whole entry): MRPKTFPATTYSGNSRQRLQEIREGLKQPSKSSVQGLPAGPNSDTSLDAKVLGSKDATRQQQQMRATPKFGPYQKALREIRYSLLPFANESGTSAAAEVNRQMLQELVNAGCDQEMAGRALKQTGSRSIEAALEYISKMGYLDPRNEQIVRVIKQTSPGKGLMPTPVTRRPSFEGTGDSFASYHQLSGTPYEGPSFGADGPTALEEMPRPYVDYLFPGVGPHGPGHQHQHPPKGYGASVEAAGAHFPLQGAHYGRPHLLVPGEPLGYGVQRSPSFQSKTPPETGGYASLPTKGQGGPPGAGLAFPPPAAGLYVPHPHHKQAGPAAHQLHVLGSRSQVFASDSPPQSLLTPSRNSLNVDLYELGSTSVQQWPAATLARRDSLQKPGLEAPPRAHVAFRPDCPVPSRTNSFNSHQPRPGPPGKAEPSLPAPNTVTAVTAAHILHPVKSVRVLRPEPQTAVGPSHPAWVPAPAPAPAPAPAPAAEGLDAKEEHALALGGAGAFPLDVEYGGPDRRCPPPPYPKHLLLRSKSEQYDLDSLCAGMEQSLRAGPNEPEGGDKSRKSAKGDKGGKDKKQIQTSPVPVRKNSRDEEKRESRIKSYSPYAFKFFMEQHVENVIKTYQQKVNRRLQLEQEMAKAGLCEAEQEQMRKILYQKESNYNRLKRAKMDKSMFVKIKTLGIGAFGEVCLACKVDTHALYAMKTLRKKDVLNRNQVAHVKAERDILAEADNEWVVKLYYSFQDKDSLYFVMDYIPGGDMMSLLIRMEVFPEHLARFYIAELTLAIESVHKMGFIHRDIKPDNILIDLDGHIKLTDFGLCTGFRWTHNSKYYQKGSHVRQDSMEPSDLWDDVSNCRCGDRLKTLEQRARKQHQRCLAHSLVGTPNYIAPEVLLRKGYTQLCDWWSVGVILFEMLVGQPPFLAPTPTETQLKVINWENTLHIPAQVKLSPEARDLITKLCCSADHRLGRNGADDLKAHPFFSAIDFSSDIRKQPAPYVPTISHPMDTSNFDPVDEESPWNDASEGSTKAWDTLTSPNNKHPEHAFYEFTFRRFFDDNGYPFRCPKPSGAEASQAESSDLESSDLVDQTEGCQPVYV

[7] = target: Inhibitor of nuclear factor kappa-B kinase subunit epsilon (Homo sapiens) (UniProt Q14164); assay: Selectivity interaction (KinomeScan (DiscoverX)) EUB0000750a IKBKE; conditions: at 1 µM
Inhibitor of nuclear factor kappa-B kinase subunit epsilon (Homo sapiens), sequence (Q14164 whole entry): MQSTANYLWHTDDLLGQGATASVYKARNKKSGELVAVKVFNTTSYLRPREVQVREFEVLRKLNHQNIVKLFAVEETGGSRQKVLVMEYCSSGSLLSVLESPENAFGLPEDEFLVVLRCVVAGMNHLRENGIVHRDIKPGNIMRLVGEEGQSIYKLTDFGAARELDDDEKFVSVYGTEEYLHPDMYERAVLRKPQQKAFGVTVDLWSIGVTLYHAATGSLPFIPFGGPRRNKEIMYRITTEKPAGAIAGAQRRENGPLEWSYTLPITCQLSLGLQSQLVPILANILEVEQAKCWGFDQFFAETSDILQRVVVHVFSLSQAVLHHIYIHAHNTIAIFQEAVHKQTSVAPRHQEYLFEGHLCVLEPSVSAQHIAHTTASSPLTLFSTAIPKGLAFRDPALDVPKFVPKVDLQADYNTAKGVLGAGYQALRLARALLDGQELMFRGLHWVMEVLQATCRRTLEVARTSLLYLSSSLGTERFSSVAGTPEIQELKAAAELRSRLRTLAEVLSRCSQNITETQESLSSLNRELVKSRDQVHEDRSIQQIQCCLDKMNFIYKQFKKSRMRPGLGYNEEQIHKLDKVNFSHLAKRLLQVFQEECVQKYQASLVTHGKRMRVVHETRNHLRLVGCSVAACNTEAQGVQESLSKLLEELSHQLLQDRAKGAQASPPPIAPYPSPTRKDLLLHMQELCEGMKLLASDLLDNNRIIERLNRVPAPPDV

Epidermal growth factor receptor, sequence (P00533 whole entry): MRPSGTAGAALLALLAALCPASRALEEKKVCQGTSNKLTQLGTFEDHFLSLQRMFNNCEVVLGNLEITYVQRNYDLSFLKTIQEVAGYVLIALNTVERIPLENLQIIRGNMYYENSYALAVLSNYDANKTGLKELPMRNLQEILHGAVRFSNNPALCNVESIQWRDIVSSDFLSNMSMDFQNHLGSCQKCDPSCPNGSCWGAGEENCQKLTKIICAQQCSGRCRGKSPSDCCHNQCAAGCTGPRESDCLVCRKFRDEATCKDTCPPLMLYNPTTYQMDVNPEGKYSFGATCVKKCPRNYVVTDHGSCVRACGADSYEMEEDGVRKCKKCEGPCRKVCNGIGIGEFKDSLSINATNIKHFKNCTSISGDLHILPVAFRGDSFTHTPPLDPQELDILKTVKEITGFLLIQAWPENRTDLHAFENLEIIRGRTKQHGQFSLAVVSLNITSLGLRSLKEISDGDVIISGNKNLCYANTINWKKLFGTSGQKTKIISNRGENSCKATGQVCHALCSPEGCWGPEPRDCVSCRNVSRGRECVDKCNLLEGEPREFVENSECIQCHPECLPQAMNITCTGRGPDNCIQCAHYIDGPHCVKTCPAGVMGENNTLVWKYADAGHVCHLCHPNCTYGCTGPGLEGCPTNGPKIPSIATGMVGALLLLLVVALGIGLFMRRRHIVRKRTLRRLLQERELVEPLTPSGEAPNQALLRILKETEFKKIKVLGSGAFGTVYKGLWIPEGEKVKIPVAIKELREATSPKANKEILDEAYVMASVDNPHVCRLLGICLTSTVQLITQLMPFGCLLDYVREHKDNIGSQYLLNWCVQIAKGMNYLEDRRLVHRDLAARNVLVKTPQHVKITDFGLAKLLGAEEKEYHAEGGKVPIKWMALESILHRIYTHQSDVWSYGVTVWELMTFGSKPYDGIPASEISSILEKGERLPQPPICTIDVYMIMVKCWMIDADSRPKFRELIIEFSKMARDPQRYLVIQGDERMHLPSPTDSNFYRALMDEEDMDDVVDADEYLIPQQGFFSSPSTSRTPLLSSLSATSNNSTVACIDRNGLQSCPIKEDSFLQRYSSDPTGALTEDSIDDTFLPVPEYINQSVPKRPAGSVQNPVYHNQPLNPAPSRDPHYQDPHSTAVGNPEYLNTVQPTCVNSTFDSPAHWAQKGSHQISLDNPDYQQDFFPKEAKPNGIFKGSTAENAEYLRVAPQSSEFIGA
Synaptic vesicular amine transporter, sequence (Q05940 whole entry): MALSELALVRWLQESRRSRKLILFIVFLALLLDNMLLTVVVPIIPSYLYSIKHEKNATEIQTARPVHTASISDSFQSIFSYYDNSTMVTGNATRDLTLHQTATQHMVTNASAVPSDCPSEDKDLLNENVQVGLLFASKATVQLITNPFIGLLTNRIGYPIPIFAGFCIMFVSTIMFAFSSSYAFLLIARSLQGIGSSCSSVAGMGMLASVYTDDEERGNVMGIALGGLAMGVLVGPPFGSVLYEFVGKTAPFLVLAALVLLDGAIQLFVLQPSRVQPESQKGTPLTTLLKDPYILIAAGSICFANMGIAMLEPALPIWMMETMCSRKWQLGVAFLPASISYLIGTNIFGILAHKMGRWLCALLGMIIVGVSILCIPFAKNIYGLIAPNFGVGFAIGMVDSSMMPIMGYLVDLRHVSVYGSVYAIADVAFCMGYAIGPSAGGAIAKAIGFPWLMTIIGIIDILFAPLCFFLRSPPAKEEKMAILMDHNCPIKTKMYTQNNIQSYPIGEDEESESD

% of control [1]: 0%
IC50 [2]: 213 nM
% of control [3]: 5%
% of control [4]: 36%
% of control [5]: 0%
% of control [6]: 0%
% of control [7]: 0%
Structure (SMILES): O=S(=O)(NC1CCC(c2cc(F)ccc2F)(S(=O)(=O)c2ccc(Cl)cc2)CC1)C(F)(F)F (configuration not stated) [MRK-560]
